Data from ChEMBL document CHEMBL4041510, “Design, synthesis, and biological evaluation of structurally modified isoindolinone and quinazolinone derivatives as hedgehog pathway inhibitors” (Eur J Med Chem, 2017).
The source made the active and inactive calls. The rule behind the calls is not given here.

System: not listed separately
Experiment: Inhibition of hedgehog signaling pathway in mouse NIH/3T3 cells measured after 24 hrs by Gli-dual luciferase reporter gene assay
Type: cell-based
Details: NIH3T3, 24 h

SMILES | IC50 [nM]
C[C@@H]1CN(c2ccc(-n3cnc4c(Cl)cccc4c3=O)cn2)C[C@H](C)O1 | 7490
C[C@@H]1CN(c2ccc(N3Cc4c(cccc4-c4cccnc4)C3=O)cn2)C[C@H](C)O1 | 7690
C[C@@H]1CN(c2ccc(-n3cnc4c(-c5ccc(S(C)(=O)=O)cc5)cccc4c3=O)cn2)C[C@H](C)O1 | 430
CC1CCN(c2cc(-n3cnc4c(-c5ccc(OC(F)(F)F)cc5)cccc4c3=O)ncn2)CC1 | 7700
O=c1c2cccc(-c3ccc(OC(F)(F)F)cc3)c2ncn1CCCn1ccnc1 | 5280
C[C@@H]1CN(c2cc(N3Cc4c(cccc4-c4ccc(OC(F)(F)F)cc4)C3=O)ncn2)C[C@H](C)O1 | 1140
C[C@@H]1CN(c2ccc(-n3cnc4c(-c5ccccc5)cccc4c3=O)cn2)C[C@H](C)O1 | 38
COc1ccc(-c2cccc3c(=O)n(-c4ccc(N5C[C@@H](C)O[C@@H](C)C5)nc4)cnc23)cc1 | 196
O=c1c2cccc(Cl)c2ncn1-c1ccc(N2CCOCC2)nc1 | 15300
C[C@@H]1CN(c2ccc(-n3cnc4c(-c5ccc(F)cc5)cccc4c3=O)cn2)C[C@H](C)O1 | 118
C[C@@H]1CN(c2cc(-n3cnc4c(Cl)cccc4c3=O)ncn2)C[C@H](C)O1 | 1240
CC1CCN(c2ccc(-n3cnc4c(-c5ccc(OC(F)(F)F)cc5)cccc4c3=O)cn2)CC1 | 847
O=c1c2cccc(Cl)c2ncn1-c1ccc(N2CCOCC2)cc1 | > 20000
O=c1c2cccc(-c3ccccc3)c2ncn1-c1ccc(N2CCOCC2)cc1 | 132
O=c1c2cccc(Cl)c2ncn1-c1ccc(F)cc1 | 269

System: NIH3T3
Experiment: Cytotoxicity against mouse NIH/3T3 cells assessed as cell viability by MTS assay
Type: cell-based
Details: not given

SMILES | Activity [µM]
C[C@@H]1CN(c2ccc(-n3cnc4c(Cl)cccc4c3=O)cn2)C[C@H](C)O1 | > 20
C[C@@H]1CN(c2ccc(N3Cc4c(cccc4-c4cccnc4)C3=O)cn2)C[C@H](C)O1 | > 20
C[C@@H]1CN(c2ccc(-n3cnc4c(-c5ccc(S(C)(=O)=O)cc5)cccc4c3=O)cn2)C[C@H](C)O1 | > 20
CC1CCN(c2cc(-n3cnc4c(-c5ccc(OC(F)(F)F)cc5)cccc4c3=O)ncn2)CC1 | > 20
O=c1c2cccc(-c3ccc(OC(F)(F)F)cc3)c2ncn1CCCn1ccnc1 | > 20
C[C@@H]1CN(c2cc(N3Cc4c(cccc4-c4ccc(OC(F)(F)F)cc4)C3=O)ncn2)C[C@H](C)O1 | > 20
C[C@@H]1CN(c2ccc(-n3cnc4c(-c5ccccc5)cccc4c3=O)cn2)C[C@H](C)O1 | > 20
COc1ccc(-c2cccc3c(=O)n(-c4ccc(N5C[C@@H](C)O[C@@H](C)C5)nc4)cnc23)cc1 | > 20
O=c1c2cccc(Cl)c2ncn1-c1ccc(N2CCOCC2)nc1 | > 20
C[C@@H]1CN(c2ccc(-n3cnc4c(-c5ccc(F)cc5)cccc4c3=O)cn2)C[C@H](C)O1 | > 20
C[C@@H]1CN(c2cc(-n3cnc4c(Cl)cccc4c3=O)ncn2)C[C@H](C)O1 | > 20
CC1CCN(c2ccc(-n3cnc4c(-c5ccc(OC(F)(F)F)cc5)cccc4c3=O)cn2)CC1 | > 20
O=c1c2cccc(Cl)c2ncn1-c1ccc(N2CCOCC2)cc1 | > 20
O=c1c2cccc(-c3ccccc3)c2ncn1-c1ccc(N2CCOCC2)cc1 | > 20
O=c1c2cccc(Cl)c2ncn1-c1ccc(F)cc1 | > 20

Organism: Mus musculus
Experiment: Inhibition of hedgehog signaling pathway in Ptch deficient MEF assessed as downregulation of Gli-1 expression by Immunoblot analysis
Details: not given

SMILES | inhibition
C[C@@H]1CN(c2ccc(-n3cnc4c(-c5ccccc5)cccc4c3=O)cn2)C[C@H](C)O1 | Active
C[C@@H]1CN(c2ccc(-n3cnc4c(-c5ccc(F)cc5)cccc4c3=O)cn2)C[C@H](C)O1 | Active

System: not listed separately
Experiment: Metabolic stability in human liver microsomes assessed as compound remaining at 1 uM preincubated for 5 mins followed by NADPH addition measured after 30 mins by LC-ESI/MS/MS analysis relative to control
Type: ADME, microsome
Details: read-out: Stability

SMILES | remaining at 0.5 h, 1 µM [%]
C[C@@H]1CN(c2ccc(-n3cnc4c(-c5ccccc5)cccc4c3=O)cn2)C[C@H](C)O1 | 68.2
C[C@@H]1CN(c2ccc(-n3cnc4c(-c5ccc(F)cc5)cccc4c3=O)cn2)C[C@H](C)O1 | 76.3

System: not listed separately
Experiment: Metabolic stability in human liver microsomes assessed as compound remaining at 1 uM in absence of NADPH incubated for 5 mins by LC-ESI/MS/MS analysis relative to control
Type: ADME, microsome
Details: read-out: Stability

SMILES | remaining at 5 min, 1 µM [%]
C[C@@H]1CN(c2ccc(-n3cnc4c(-c5ccccc5)cccc4c3=O)cn2)C[C@H](C)O1 | 83.7
C[C@@H]1CN(c2ccc(-n3cnc4c(-c5ccc(F)cc5)cccc4c3=O)cn2)C[C@H](C)O1 | 91.3

System: not listed separately
Experiment: Metabolic stability in human liver microsomes assessed as compound remaining at 1 uM preincubated for 5 mins followed by UDPGA addition measured after 30 mins by LC-ESI/MS/MS analysis relative to control
Type: ADME, microsome
Details: read-out: Stability

SMILES | remaining at 0.5 h, 1 µM [%]
C[C@@H]1CN(c2ccc(-n3cnc4c(-c5ccccc5)cccc4c3=O)cn2)C[C@H](C)O1 | 91
C[C@@H]1CN(c2ccc(-n3cnc4c(-c5ccc(F)cc5)cccc4c3=O)cn2)C[C@H](C)O1 | 83.5

System: not listed separately
Experiment: Metabolic stability in human liver microsomes assessed as compound remaining at 1 uM in absence of UDPGA incubated for 5 mins by LC-ESI/MS/MS analysis relative to control
Type: ADME, microsome
Details: read-out: Stability

SMILES | remaining at 5 min, 1 µM [%]
C[C@@H]1CN(c2ccc(-n3cnc4c(-c5ccccc5)cccc4c3=O)cn2)C[C@H](C)O1 | 93.1
C[C@@H]1CN(c2ccc(-n3cnc4c(-c5ccc(F)cc5)cccc4c3=O)cn2)C[C@H](C)O1 | 83.2

Organism: Mus musculus
Experiment: Inhibition of hedgehog signaling pathway in mouse NIH/3T3 cells assessed as inhibition of hedgehog-induced Smo-EGFP ciliary translocation by DAPI staining based confocal microscopic analysis
Type: cell-based
Details: not given

SMILES | inhibition
C[C@@H]1CN(c2ccc(-n3cnc4c(-c5ccccc5)cccc4c3=O)cn2)C[C@H](C)O1 | Active
C[C@@H]1CN(c2ccc(-n3cnc4c(-c5ccc(F)cc5)cccc4c3=O)cn2)C[C@H](C)O1 | Active

Organism: Mus musculus
Experiment: Inhibition of hedgehog signaling pathway expressed in mouse NIH/3T3 cells assessed as inhibition of hedgehog-induced Gli-2 accumulation at tip of primary cilia by DAPI staining based confocal microscopic analysis
Type: cell-based
Details: not given

SMILES | inhibition
C[C@@H]1CN(c2ccc(-n3cnc4c(-c5ccccc5)cccc4c3=O)cn2)C[C@H](C)O1 | Active
C[C@@H]1CN(c2ccc(-n3cnc4c(-c5ccc(F)cc5)cccc4c3=O)cn2)C[C@H](C)O1 | Active

System: not listed separately
Experiment: Inhibition of hedgehog signaling pathway in mouse NIH/3T3 cells expressing wild type Smo assessed as reduction in Gli mRNA expression by RT-PCR method
Type: cell-based
Details: NIH3T3

SMILES | IC50 [nM]
C[C@@H]1CN(c2ccc(-n3cnc4c(-c5ccccc5)cccc4c3=O)cn2)C[C@H](C)O1 | 257
C[C@@H]1CN(c2ccc(-n3cnc4c(-c5ccc(F)cc5)cccc4c3=O)cn2)C[C@H](C)O1 | 114

System: not listed separately
Experiment: Inhibition of hedgehog signaling pathway in mouse NIH/3T3 cells harboring Smo D477H mutant assessed as reduction in Gli mRNA expression by RT-PCR method
Type: cell-based
Details: NIH3T3

SMILES | IC50 [nM]
C[C@@H]1CN(c2ccc(-n3cnc4c(-c5ccccc5)cccc4c3=O)cn2)C[C@H](C)O1 | 91.1
C[C@@H]1CN(c2ccc(-n3cnc4c(-c5ccc(F)cc5)cccc4c3=O)cn2)C[C@H](C)O1 | 246

Organism: Mus musculus
Experiment: Selectivity ratio of IC50 for hedgehog signaling pathway in mouse NIH/3T3 cells harboring Smo D477H mutant to IC50 for hedgehog signaling pathway in mouse NIH/3T3 cells expressing wild type Smo
Type: cell-based
Details: not given

SMILES | Ratio IC50
C[C@@H]1CN(c2ccc(-n3cnc4c(-c5ccccc5)cccc4c3=O)cn2)C[C@H](C)O1 | 0.355
C[C@@H]1CN(c2ccc(-n3cnc4c(-c5ccc(F)cc5)cccc4c3=O)cn2)C[C@H](C)O1 | 2.16
